Experimental data reported in article PMC6934184, “Selective DNA-PKcs inhibition extends the therapeutic index of localized radiotherapy and chemotherapy” (The Journal of Clinical Investigation, 2019).

Target: T1, GRK1 (Homo sapiens, UniProt Q15835)
T1 construct: purchased Thermo Fisher Scientific (Life Technologies) SelectScreen
Experiment: SelectScreen LanthaScreen
Type: binding
Details: read-out: % displacement
In short: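 Percent values come from Thermo SelectScreen profiling of NU5455, combining activity and binding assays. CSF1R was run in Z'LYTE format at Km app ATP, and CAMK1 in Adapta format with ATP listed at 10.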

T1 sequence (Q15835 whole entry): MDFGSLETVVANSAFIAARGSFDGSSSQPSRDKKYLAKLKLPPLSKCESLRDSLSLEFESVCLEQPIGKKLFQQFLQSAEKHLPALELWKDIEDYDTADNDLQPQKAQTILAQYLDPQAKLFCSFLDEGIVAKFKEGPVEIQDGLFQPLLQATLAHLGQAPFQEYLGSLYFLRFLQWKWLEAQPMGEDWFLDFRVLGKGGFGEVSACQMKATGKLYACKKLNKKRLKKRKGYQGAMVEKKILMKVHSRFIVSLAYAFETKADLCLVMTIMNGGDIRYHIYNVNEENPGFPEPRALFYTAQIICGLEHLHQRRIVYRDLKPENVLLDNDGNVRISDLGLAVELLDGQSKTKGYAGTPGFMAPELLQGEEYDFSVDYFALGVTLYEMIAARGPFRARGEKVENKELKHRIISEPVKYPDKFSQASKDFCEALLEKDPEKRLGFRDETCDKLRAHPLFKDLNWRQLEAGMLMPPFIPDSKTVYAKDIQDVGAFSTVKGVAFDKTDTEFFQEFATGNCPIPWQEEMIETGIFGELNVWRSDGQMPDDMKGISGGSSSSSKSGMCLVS

In the case of `CN(C(=O)CN1CCOCC1)c1ccc2sc3c(-c4cccc5c(=O)cc(N6CC7CCC(C6)O7)oc45)cccc3c2c1` [NU5455], the inhibition at 1 µM is reported as 1.3%.
